Read-outs that look alike come from different tables or passages of the source.
Tests used:
Type in all cases: cell-based
M. morgannii = test: organism not typed; settings: strain 769909; OXA-48
Source text: The antibacterial activity of cefepime-taniborbactam was compared to that of ceftazidime-avibactam, ceftolozane-tazobactam, and cefepime-tazobactam against a diverse panel of Enterobacterales and P. aeruginosa clinical isolates with defined β-lactamase subtypes (see Table S1 in the supplemental material). IMP-producing strains were excluded, as none of the BLI-protected cephalosporins inhibited IMP sufficiently to provide a clinically relevant rescue of the partner β-lactam, a characteristic also shared by approved BLI-protected carbapenems (meropenem-vaborbactam and imipenem-relebactam). […] The antibacterial activity of the cephalosporins alone was included to ascertain the level of potentiation by the partnered BLI. BLIs were tested at a fixed concentration of 4 μg/ml in all combinations except cefepime-tazobactam, where tazobactam was fixed at a concentration of 8 μg/ml ([38]). The collection comprised 143 clinical isolates collected from 2005 and 2018.
The in vitro antibacterial activity of the β-lactams alone or in combination with the BLIs was determined in cation-adjusted Mueller-Hinton broth (CAMHB) microdilution assays according to CLSI recommendations ([51]). […]. The inocula for the broth microdilution assays were prepared by the broth culture method ([51]). […]

E. coli = test: microbe, parasite or virus in culture
C. freundii = test: microbe, parasite or virus in culture; settings: Citrobacter freundii
K. aerogenes = test: microbe, parasite or virus in culture; settings: Klebsiella aerogenes
K. pneumoniae = test: microbe, parasite or virus in culture
S. marcescens = test: microbe, parasite or virus in culture; settings: Serratia marcescens
S. paratyphi = test: microbe, parasite or virus in culture; settings: Salmonella enterica, strain 527, AmpC/TEM-1
K. oxytoca = test: microbe, parasite or virus in culture; settings: Klebsiella oxytoca
S. typhi = test: microbe, parasite or virus in culture; settings: Salmonella enterica, strain 26A, AmpC/TEM-1
P. aeruginosa = test: microbe, parasite or virus in culture

Measured: MIC

CC(C)(O/N=C(\C(=O)N[C@@H]1C(=O)N2C(C(=O)[O-])=C(C[n+]3ccccc3)CS[C@H]12)c1csc(N)n1)C(=O)O [CAZ]
4 µg/mL: E. coli; Escherichia coli, strain 890500, TEM-1/CTX-M-14, read-out: MIC | P. aeruginosa; Pseudomonas aeruginosa, strain 1129, PDC, read-out: MIC | P. aeruginosa; Pseudomonas aeruginosa, strain 377860, W.T., read-out: MIC | P. aeruginosa; Pseudomonas aeruginosa, strain PA2, W.T., read-out: MIC
64 µg/mL: E. coli | E. coli; Escherichia coli, strain 469, AmpC/SHV-12/TEM-1, read-out: MIC | E. coli; Escherichia coli, strain 664507, OXA-48, read-out: MIC | E. coli; Escherichia coli, strain 664516, OXA-48, read-out: MIC | E. coli; Escherichia coli, strain 664520, OXA-48, read-out: MIC | E. coli; Escherichia coli, strain 664522, OXA-48, read-out: MIC | E. coli; Escherichia coli, strain 664523, OXA-48, read-out: MIC | E. coli; Escherichia coli, strain EC1552 2A, AmpC/CMY-2/TEM-1, CTX-M-15, read-out: MIC | E. coli; Escherichia coli, strain SI-PO26, AmpC/CMY-2/TEM-1, read-out: MIC | K. pneumoniae | K. pneumoniae; Klebsiella pneumoniae, strain 515746, OXA-48, read-out: MIC | K. pneumoniae; Klebsiella pneumoniae, strain 722870, OXA-48, read-out: MIC | K. pneumoniae; Klebsiella pneumoniae, strain 769972, OXA-48, read-out: MIC | K. pneumoniae; Klebsiella pneumoniae, strain 873460, SHV-30/CTX-M-15, read-out: MIC | K. pneumoniae; Klebsiella pneumoniae, strain DOV, OXA-48, read-out: MIC | K. pneumoniae; Klebsiella pneumoniae, strain SI-C05, OXA-48, read-out: MIC | S. marcescens; strain 134434, AmpC/SHV-12/TEM-1 | S. marcescens; strain 218073, AmpC/SHV-7/TEM-1 | S. typhi | P. aeruginosa | P. aeruginosa; Pseudomonas aeruginosa, strain 1071703, GES-6, read-out: MIC | P. aeruginosa; Pseudomonas aeruginosa, strain 1258509, GES-6, read-out: MIC | P. aeruginosa; Pseudomonas aeruginosa, strain PS-12, VIM-2, read-out: MIC | P. aeruginosa; Pseudomonas aeruginosa, strain Paeβ-15, 310-fold ↑ PDC-2/10% OprD/4.4x↑XYM, read-out: MIC | P. aeruginosa; Pseudomonas aeruginosa, strain Paeβ-17, 62-fold ↑PDC-3/30% OprD/10.2x and 9.9x ↑XYM and CDJ, read-out: MIC | P. aeruginosa; Pseudomonas aeruginosa, strain Paeβ-21, 200-fold ↑ PDC-4/10% OprD/13.5x ↑XYM, read-out: MIC | P. aeruginosa; Pseudomonas aeruginosa, strain Ps296, VIM-2, read-out: MIC
0.5 µg/mL: E. coli; Escherichia coli, strain VER, OXA-48, read-out: MIC
2 µg/mL: M. morgannii | P. aeruginosa; Pseudomonas aeruginosa, ATCC27853, strain ATCC 27853, W.T., read-out: MIC | P. aeruginosa; Pseudomonas aeruginosa, strain 164951, W.T., read-out: MIC
8 µg/mL: E. coli; Escherichia coli, strain 875627, CTX-M-27, read-out: MIC | E. coli; Escherichia coli, strain SI-LP377, CTX-M-2, read-out: MIC | C. freundii; strain 241181, AmpC/TEM-163 | K. pneumoniae; Klebsiella pneumoniae, strain 787422, OXA-48, read-out: MIC | S. paratyphi
16 µg/mL: C. freundii; strain 134390, AmpC/TEM-1 | P. aeruginosa; Pseudomonas aeruginosa, strain 8273, PDC/TEM-1, read-out: MIC | P. aeruginosa; Pseudomonas aeruginosa, strain 384743, PDC/TEM-1, read-out: MIC | P. aeruginosa; Pseudomonas aeruginosa, strain PS-32, VIM-2, read-out: MIC
128 µg/mL: E. coli; Escherichia coli, strain 873435, CTX-M-15, read-out: MIC | E. coli; Escherichia coli, strain 1275635, VIM-23, read-out: MIC | E. coli; Escherichia coli, strain ESBL 5, CTX-M-15/TEM-1, read-out: MIC | K. aerogenes; strain 110099, AmpC/SHV-12 | K. pneumoniae; Klebsiella pneumoniae, strain 6299, OXA-163, read-out: MIC | K. pneumoniae; Klebsiella pneumoniae, strain 178279, SHV-12/TEM-1/AmpC, read-out: MIC | K. pneumoniae; Klebsiella pneumoniae, strain 212027, AmpC/FOX-5/TEM-1, read-out: MIC | K. pneumoniae; Klebsiella pneumoniae, strain 664438, OXA-48, read-out: MIC | K. pneumoniae; Klebsiella pneumoniae, strain 664439, OXA-48, read-out: MIC | K. pneumoniae; Klebsiella pneumoniae, strain 752334, OXA-48, read-out: MIC | K. pneumoniae; Klebsiella pneumoniae, strain ESBL 10, SHV-12/TEM-1, read-out: MIC | K. pneumoniae; Klebsiella pneumoniae, strain KIRK, OXA-162, read-out: MIC | S. marcescens; strain 192476, AmpC/TEM-1/SHV-5 | S. marcescens; strain 192478, AmpC/SHV-12/TEM-1 | K. oxytoca; strain 134943, CMY-2/TEM-1, read-out: MIC | P. aeruginosa; Pseudomonas aeruginosa, strain 11.516, PDC-79, read-out: MIC | P. aeruginosa; Pseudomonas aeruginosa, strain 13.1737, PDC-80, read-out: MIC | P. aeruginosa; Pseudomonas aeruginosa, strain 5671, VIM-1, read-out: MIC
≥ 256 µg/mL: E. coli; Escherichia coli, strain 1459453, NDM-7, read-out: MIC | E. coli; Escherichia coli, strain CDC-0069, NDM, read-out: MIC | E. coli; Escherichia coli, strain CDC-0149, NDM, read-out: MIC | E. coli; Escherichia coli, strain SI-M004, SHV-2/GES-12, read-out: MIC | K. pneumoniae; Klebsiella pneumoniae, strain 196477, AmpC, read-out: MIC | K. pneumoniae; Klebsiella pneumoniae, strain 856819, SHV-11/VIM-1, read-out: MIC | K. pneumoniae; Klebsiella pneumoniae, strain 874328, SHV-11/CTX-M-15/NDM-1, read-out: MIC | K. pneumoniae; Klebsiella pneumoniae, strain 882956, SHV-31/DHA-1/VIM-1, read-out: MIC | K. pneumoniae; Klebsiella pneumoniae, strain 890066, SHV-33/TEM-33/CTX-M-15/IMP-1, read-out: MIC | K. pneumoniae; Klebsiella pneumoniae, strain 892694, SHV-12/TEM-1/CTX-M-15/OXA-48/ACT, read-out: MIC | K. pneumoniae; Klebsiella pneumoniae, strain 919877, SHV-OSBL/VIM-1, read-out: MIC | K. pneumoniae; Klebsiella pneumoniae, strain 1104864, SHV-OSBL(b)/VIM-1, read-out: MIC | K. pneumoniae; Klebsiella pneumoniae, strain 1104866, SHV-OSBL(b)/VIM-1, read-out: MIC | K. pneumoniae; Klebsiella pneumoniae, strain 1280442, SHV-OSBL(b)/VIM-1, read-out: MIC | K. pneumoniae; Klebsiella pneumoniae, strain CDC-0049, NDM, read-out: MIC | K. pneumoniae; Klebsiella pneumoniae, strain CDC-0139, NDM-1, read-out: MIC | K. pneumoniae; Klebsiella pneumoniae, strain CDC-0145, NDM, read-out: MIC | K. pneumoniae; Klebsiella pneumoniae, strain CDC-0148, NDM, read-out: MIC | K. pneumoniae; Klebsiella pneumoniae, strain CDC-0152, NDM, read-out: MIC | K. pneumoniae; Klebsiella pneumoniae, strain ESBL8 #1, TEM-1/SHV-12, read-out: MIC | K. oxytoca | P. aeruginosa; Pseudomonas aeruginosa, strain 10.257, PDC-50, read-out: MIC | P. aeruginosa; Pseudomonas aeruginosa, strain 11.698, PDC-87, read-out: MIC | P. aeruginosa; Pseudomonas aeruginosa, strain 11.813, PDC-91, read-out: MIC | P. aeruginosa; Pseudomonas aeruginosa, strain 13.1716, PDC-74, read-out: MIC | P. aeruginosa; Pseudomonas aeruginosa, strain 13.1717, PDC-74, read-out: MIC | P. aeruginosa; Pseudomonas aeruginosa, strain 13.1755, PDC-86, read-out: MIC | P. aeruginosa; Pseudomonas aeruginosa, strain 13.1760, PDC-77, read-out: MIC | P. aeruginosa; Pseudomonas aeruginosa, strain 13.1775, PDC-87, read-out: MIC | P. aeruginosa; Pseudomonas aeruginosa, strain 247.3D, VIM-2, read-out: MIC | P. aeruginosa; Pseudomonas aeruginosa, strain 1113755, GES-5, read-out: MIC | P. aeruginosa; Pseudomonas aeruginosa, strain 1138223, GES-19, read-out: MIC | P. aeruginosa; Pseudomonas aeruginosa, strain 1138337, GES-19, read-out: MIC | P. aeruginosa; Pseudomonas aeruginosa, strain 1275655, GES-20, read-out: MIC | P. aeruginosa; Pseudomonas aeruginosa, strain 1300089, GES-19, read-out: MIC | P. aeruginosa; Pseudomonas aeruginosa, strain PAA1-9G1, GES-5, read-out: MIC | P. aeruginosa; Pseudomonas aeruginosa, strain PAA1-9G2, GES-5, read-out: MIC | P. aeruginosa; Pseudomonas aeruginosa, strain Paeβ-18, 600-fold ↑ PDC-3/<0.01% OprD/3.9x and 5.6x ↑ABM and XYM, read-out: MIC
32 µg/mL: E. coli; Escherichia coli, strain 1924, TEM-12, read-out: MIC | E. coli; Escherichia coli, strain 878358, TEM-1/CTX-M, read-out: MIC | E. coli; Escherichia coli, strain SI-V502, TEM-29/CTX-M-15, read-out: MIC | K. aerogenes; strain 73546, AmpC | K. aerogenes; strain 111707, AmpC/TEM-1 | K. pneumoniae; Klebsiella pneumoniae, strain SI-F100, SHV-5/TEM-1/CMY-2, read-out: MIC | P. aeruginosa; Pseudomonas aeruginosa, strain 3615, PDC/TEM-1, read-out: MIC | P. aeruginosa; Pseudomonas aeruginosa, strain Paeβ-04, 100-fold ↑ PDC-2/30% OprD/5.6x ↑ABM, read-out: MIC | P. aeruginosa; Pseudomonas aeruginosa, strain Paeβ-10, 67-fold ↑ PDC-2/0.1% OprD/5.7x↑ABM, read-out: MIC

Reference: paper PMC7038240 (Antimicrobial Agents and Chemotherapy, 2020)
